Assay results reported in publication PMC5923397, “A New Breviane Spiroditerpenoid from the Marine-Derived Fungus Penicillium sp. TJ403-1” (Marine Drugs, 2018).

Experiments:
A-549 = experiment: Cytotoxicity assay (MTT), A-549; assay type: cell-based, human; conditions: 48 h exposure
Description: (§1) Five human tumor cell lines (HL-60, MM231, A-549, HEP3B, and SW480), together with one non-cancerous cell line, the human normal colonic epithelial cell NCM460, were used in the cytotoxic activity assay. All cells were cultured in DMEM or RPMI-1640 medium (HyClone, Logan, UT, USA), supplemented with 10% fetal bovine serum (HyClone) at 37 °C in a humidified atmosphere with 5% CO2. The cell survival assay was performed using the MTT method. Briefly, 100 μL suspended cells at an initial density of 1 × 10^5 cells/mL were seeded into each well of the 96-well culture plates and allowed to adhere for 12 h before addition of the test compounds. […] After incubation, culture supernatants were removed and exchanged with medium containing 0.5 mg/mL MTT. Then, after 4 h incubation in darkness at 37 °C, the medium was removed, and cells were added with 100 μL dimethyl sulfoxide. The absorbance at 570 nm was measured and data are expressed as averages of three replicates. The value of inhibition was calculated by using the following formula: % inhibition = (1 − ODtreated/ODcontrol) × 100. The IC50 values were calculated by using a standard dose-response curve fitting with Prism (version 5.0, GraphPad Software, La Jolla, CA, USA).

SW480 = experiment: Cytotoxicity assay (MTT), SW480; assay type: cell-based, human; conditions: SW480 (colon cancer), 48 h exposure
Description: as §1

HL-60 = experiment: Cytotoxicity assay (MTT), HL-60; assay type: cell-based; conditions: Homo sapiens, HL-60 (acute leukemia), 48 h exposure
Description: as §1

MM231 = experiment: Cytotoxicity assay (MTT), MM231; assay type: cell-based, human; conditions: MM231 (breast cancer), 48 h exposure
Description: as §1

NCM460 = experiment: Cytotoxicity assay (MTT), normal colonic epithelial cell NCM460; assay type: cell-based, human; conditions: for IC50: MTT, 48 h exposure
Description: as §1

HEP3B = experiment: Cytotoxicity assay (MTT), HEP3B; assay type: cell-based, human; conditions: HEP3B (hepatic cancer), 48 h exposure
Description: as §1

[1] = Homo sapiens, A549, A-549 (lung cancer)

SMILES	IC50 (A-549; [1]) [µM]	IC50 (SW480; Homo sapiens) [µM]	IC50 (HL-60) [µM]	IC50 (MM231; Homo sapiens) [µM]	IC50 (NCM460; Homo sapiens) [µM]	IC50 (HEP3B; Homo sapiens) [µM]	IC50 (A-549; A-549 (lung cancer)) [µM]	IC50 (SW480) [µM]	IC50 (MM231) [µM]	IC50 (NCM460) [µM]	IC50 (HEP3B) [µM]	cytotoxic activity against the NCM460 cell (NCM460; result in words)
CC1=CC(O)C2C3(C)C(O)CC(=O)C(C)(C)C3CCC2(C)C12Cc1c(c(C)c(C)oc1=O)O2 (stereo not drawn) [compound 1, brevione O]	> 40	> 40	> 40	> 40	> 40	> 40						
C=CC(C)(C)C12CC3C(=O)NC(C(C)C)C(=O)N3C1N(C(C)=O)c1ccccc12 (stereo not drawn) [compound 5, brevicompanine G]	18.4 ± 2.15	> 40	21.8 ± 3.48	> 40	> 40	> 40						
N.N.[Cl][Pt][Cl] [Cis-platin, cis-platin, reference compound]							2.79 ± 0.36	1.42 ± 0.11	3.84 ± 0.25	0.85 ± 0.07	2.96 ± 0.22	
CC(=O)O[C@H]1C(=O)[C@@]2(C)[C@H]([C@H](OC(=O)c3ccccc3)[C@]3(O)C[C@H](OC(=O)[C@H](O)[C@@H](NC(=O)c4ccccc4)c4ccccc4)C(C)=C1C3(C)C)[C@]1(OC(C)=O)CO[C@@H]1C[C@@H]2O [Paclitaxel, paclitaxel, reference compound]	< 0.008	< 0.008	< 0.008	< 0.008	< 0.008	< 0.008						
CC1=CC(=O)C[C@@H]2O[C@@H]3C=C(C)[C@@]45Oc6c(C)c(C)oc(=O)c6[C@@H]4O[C@H](O)[C@]54CC[C@@H]1[C@@]2(C)[C@@H]34 [compound 4, brevione H]	> 40	> 40	> 40	> 40	> 40	> 40						
CC1=C[C@H](O)[C@@H]2[C@@]3(C)CCC(=O)C(C)(C)[C@@H]3CC[C@@]2(C)[C@]12Cc1c(c(C)c(C)oc1=O)O2 [compound 3, brevione J]	> 40	> 40	25.6 ± 3.84	> 40	> 40	> 40						
CC1=C[C@H](O)[C@@H]2[C@@]3(C)C=CC(=O)C(C)(C)[C@@H]3CC[C@@]2(C)[C@]12Cc1c(c(C)c(C)oc1=O)O2 [compound 2, brevione I]	8.6 ± 1.36	21.2 ± 2.72	4.92 ± 0.65	> 40	> 40	5.5 ± 0.67						no cytotoxic activity
